Test results from patent US20240327429A1, “[1,3]Thiazolo[4,5-d]-pyrimidon-7-ones as inhibitors of NOX4” (Boehringer Ingelheim International GmbH, priority 2023, published 2024).

How the values were obtained:
human NOX5 (hNOX5) = target: T1, human NOX5 (hNOX5) (Homo sapiens, UniProt Q96PH1); experiment: NOX5 inhibition assay (L-012), HEK293 cells stably overexpressing human NOX5; type: cell-based; details: HEK293-hNOX5, PMA stimulated
T1 construct: expressed in transfected cells; host or cells: HEK293
T1 sequence (Q96PH1 1-765): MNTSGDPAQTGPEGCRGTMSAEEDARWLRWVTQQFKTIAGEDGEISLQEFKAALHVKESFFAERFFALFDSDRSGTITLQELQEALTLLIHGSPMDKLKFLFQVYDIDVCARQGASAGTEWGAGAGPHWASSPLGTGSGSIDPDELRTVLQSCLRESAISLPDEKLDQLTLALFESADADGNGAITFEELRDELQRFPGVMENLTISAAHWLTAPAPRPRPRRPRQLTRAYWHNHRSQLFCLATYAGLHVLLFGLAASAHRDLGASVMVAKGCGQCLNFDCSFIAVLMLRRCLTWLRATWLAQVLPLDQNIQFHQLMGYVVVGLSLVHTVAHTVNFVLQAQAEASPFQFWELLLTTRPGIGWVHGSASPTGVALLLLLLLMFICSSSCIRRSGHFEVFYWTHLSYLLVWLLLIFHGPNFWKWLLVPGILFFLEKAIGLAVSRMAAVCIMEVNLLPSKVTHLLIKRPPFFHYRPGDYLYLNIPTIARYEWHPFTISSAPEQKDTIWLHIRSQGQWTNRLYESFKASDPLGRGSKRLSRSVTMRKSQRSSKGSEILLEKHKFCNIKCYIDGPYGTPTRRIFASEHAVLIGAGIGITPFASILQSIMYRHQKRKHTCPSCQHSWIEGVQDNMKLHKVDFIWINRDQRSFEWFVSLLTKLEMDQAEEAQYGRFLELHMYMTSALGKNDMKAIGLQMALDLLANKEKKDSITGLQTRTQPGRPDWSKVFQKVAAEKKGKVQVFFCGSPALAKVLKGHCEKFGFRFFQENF
Description: The synthetic gene hNOX5 (Accession: Q96PH1) is cloned into pcDNA3.1_Zeo. […] The final construct is verified by sequencing.
Evaluation of the NOX4 inhibitors on NOX5 activity is assessed in HEK293 cells stably overexpressing human NOX5 (hNOX5).
Cells are seeded in 384 well plates over-night. […] Cells are then stimulated with PMA at 0.1 μM to induce NOX5-dependent ROS production. […] Luminescence is measured with an PHERAstar multimode reader.

human hepatocytes = experiment: Evaluation of hepatocyte clearance (metabolic stability); type: in vitro ADME; details: 1 μM test compound, 5% human serum, Table 3
Description: The metabolic degradation of the test compound is assayed in a hepatocyte suspension. Hepatocytes (cryopreserved) are incubated in Dulbecco's modified eagle medium (supplemented with […] glucagon/500 mL, 2.5 mg insulin/500 mL and 3.75 mg/500 mL hydrocortisone) containing 5% human serum.
Following a 30 min preincubation in an incubator (37° C., 10% CO2) 5 μl of test compound solution (80 μM; from 2 mM in DMSO stock solution diluted 1:25 with medium) are added into 395 μl hepatocyte suspension (cell density in the range 0.25-5 Mio cells/mL, typically 1 Mio cells/mL; final concentration of test compound 1 μM, final DMSO concentration 0.05%).
The cells are incubated for six hours (incubator, orbital shaker) and samples (25 μl) are taken at 0, 0.5, 1, 2, 4 and 6 hours. Samples are transferred into acetonitrile and pelleted by centrifugation (5 min). The supernatant is transferred to a new 96-deepwell plate, evaporated under nitrogen and resuspended.
Decline of Parent Compound is Analyzed by HPLC-MS/MS.
CLint is Calculated as Follows:
CL_[…]=Dose/AUC=(C0/CD)/(AUD+clast/k)×1000/60. • C0: initial concentration in the incubation [μM], CD: cell density of vital cells [10^6 cells/mL], AUD: area under the data [μM×h], clast: concentration of last data point [μM], • k: slope of the regression line for parent decline [h-1].
The calculated in vitro hepatic intrinsic clearance can be scaled up to the intrinsic in vivo hepatic clearance and used to predict hepatic in vivo blood clearance (CL) by the use of a liver model (well stirred model).
CL_[…]_INVIVO[ml/min/kg]=(CL_[…][μL/min/10^6 cells]×hepatocellularity[10^6 cells/g liver]×liver factor[g/kg bodyweight])/1000
CL[ml/min/kg]=CL_[…]_INVIVO[ml/min/kg]×hepatic blood flow[ml/min/kg]/(CL_[…]_INVIVO[ml/min/kg]+hepatic blood flow[ml/min/kg])

NOX2 = target: T2, NOX2 (Homo sapiens, UniProt P04839); experiment: NOX2 inhibition assay (L-012), human blood-derived granulocytes; type: cell-based; details: fMLP/PMA stimulated
T2 construct: endogenous in cells; host or cells: freshly isolated human blood-derived granulocytes
T2 sequence (P04839 2-570 limits assumed): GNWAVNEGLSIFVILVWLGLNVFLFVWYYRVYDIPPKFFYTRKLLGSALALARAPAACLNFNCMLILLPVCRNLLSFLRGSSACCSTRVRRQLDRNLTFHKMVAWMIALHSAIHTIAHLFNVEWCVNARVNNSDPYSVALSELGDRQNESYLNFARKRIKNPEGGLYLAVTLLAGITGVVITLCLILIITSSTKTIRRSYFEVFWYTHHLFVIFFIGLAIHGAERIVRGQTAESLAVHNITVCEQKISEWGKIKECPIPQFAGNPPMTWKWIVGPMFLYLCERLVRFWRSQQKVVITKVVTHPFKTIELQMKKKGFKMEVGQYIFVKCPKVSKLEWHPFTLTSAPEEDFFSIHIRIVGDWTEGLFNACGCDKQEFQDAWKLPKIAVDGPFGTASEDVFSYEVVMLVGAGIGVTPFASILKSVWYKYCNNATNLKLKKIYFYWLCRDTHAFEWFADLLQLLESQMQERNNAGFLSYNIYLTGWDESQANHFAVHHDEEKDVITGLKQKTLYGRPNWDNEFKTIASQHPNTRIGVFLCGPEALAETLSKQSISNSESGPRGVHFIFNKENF
T2 sequence (P13498 2-195 partner limits assumed): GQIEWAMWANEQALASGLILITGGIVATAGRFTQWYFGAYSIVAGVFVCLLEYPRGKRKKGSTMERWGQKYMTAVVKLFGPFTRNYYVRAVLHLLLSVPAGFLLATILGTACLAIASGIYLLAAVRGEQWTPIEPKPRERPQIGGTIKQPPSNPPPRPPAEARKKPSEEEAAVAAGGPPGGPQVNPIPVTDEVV
Description: Evaluation of the NOX4 inhibitors on NOX2 activity is assessed in human blood-derived granulocytes.
Afterwards, freshly isolated granulocytes are added to the wells containing the compounds in assay buffer and incubated for 1 h at 37° C. Next, a solution of Nformylmethionine-leucyl-phenylalanine (fMLP; 730 nM), phorbol myristate acetate (PMA, 100 nM) (stimuli of ROS production) and L-012 (200 μM, ROS indicator) is added to the wells and the cells are incubated for additional 30 mins at 37° C. Afterwards luminescence is measured in a SpectraMax M5 microplate reader.

Cc1cc(F)cc(C)c1CSc1nc2ncsc2c(=O)n1-c1cnc(O)c(F)c1 [Example 43]
IC50 (human NOX5 (hNOX5)): > 100 µM
Qh [%] (human hepatocytes): 37%
IC50 (NOX2): > 100 µM

O=c1c2scnc2nc(SCc2ccc(Cl)cc2)n1-c1cc(F)c(O)c(F)c1 [Example 5]
IC50 (human NOX5 (hNOX5)): > 100 µM
Qh [%] (human hepatocytes): 56%
IC50 (NOX2): > 100 µM

O=c1c2scnc2nc(SCc2c(F)cc(F)cc2F)n1-c1cc(F)c(O)cn1 [Example 20]
IC50 (human NOX5 (hNOX5)): 32.7 µM
Qh [%] (human hepatocytes): 51%
IC50 (NOX2): > 100 µM

O=c1c2scnc2nc(SCc2c(F)cc(F)cc2F)n1-c1ccc(O)cc1 [Example 15]
IC50 (human NOX5 (hNOX5)): 59 µM
Qh [%] (human hepatocytes): 61%
IC50 (NOX2): 10.3 µM

O=c1c2scnc2nc(SCc2ccc(Cl)cc2)n1-c1ccc(O)nn1 [Example 64]
IC50 (human NOX5 (hNOX5)): > 100 µM
Qh [%] (human hepatocytes): 47%
IC50 (NOX2): > 100 µM

O=c1c2scnc2nc(SCc2ccc(C(F)(F)F)cc2)n1-c1ccc(O)nc1 [Example 27]
IC50 (human NOX5 (hNOX5)): 93.3 µM
Qh [%] (human hepatocytes): 37%
IC50 (NOX2): > 100 µM

O=c1c2scnc2nc(SCc2ccc(C(F)(F)F)cc2)n1-c1cc(F)c(O)c(F)c1 [Example 7]
IC50 (human NOX5 (hNOX5)): > 100 µM
Qh [%] (human hepatocytes): 55%
IC50 (NOX2): > 100 µM

Cc1cc(F)cc(C)c1CSc1nc2ncsc2c(=O)n1-c1cnc(O)nc1 [Example 55]
IC50 (human NOX5 (hNOX5)): 85.8 µM
Qh [%] (human hepatocytes): 15%
IC50 (NOX2): > 100 µM

Cc1cc(F)ccc1CSc1nc2ncsc2c(=O)n1-c1cnc(O)nc1 [Example 58]
IC50 (human NOX5 (hNOX5)): > 100 µM
Qh [%] (human hepatocytes): 19%
IC50 (NOX2): > 100 µM

Cc1cc(F)ccc1CSc1nc2ncsc2c(=O)n1-c1ccc(O)nc1 [Example 29]
IC50 (human NOX5 (hNOX5)): > 100 µM
Qh [%] (human hepatocytes): 54%
IC50 (NOX2): 36.9 µM

O=c1c2scnc2nc(SCc2ccc(F)cc2Br)n1-c1cnc(O)c(F)c1 [Example 44]
IC50 (human NOX5 (hNOX5)): 68.1 µM
Qh [%] (human hepatocytes): 29%
IC50 (NOX2): > 100 µM

O=c1c2scnc2nc(SCc2c(F)cc(F)cc2F)n1-c1ccc(O)cc1F [Example 14]
IC50 (human NOX5 (hNOX5)): 10.2 µM
Qh [%] (human hepatocytes): 73%
IC50 (NOX2): 13.4 µM

O=c1c2scnc2nc(SCc2ccc(F)cc2F)n1-c1cnc(O)c(F)c1 [Example 38]
IC50 (human NOX5 (hNOX5)): > 100 µM
Qh [%] (human hepatocytes): 11%
IC50 (NOX2): > 100 µM

O=c1c2scnc2nc(SCc2ccc(Cl)cc2F)n1-c1ccc(O)nc1 [Example 22, 5-((4-Chloro-2-fluorobenzyl)thio)-6-(6-hydroxypyridin-3-yl)thiazolo[4,5-d]pyrimidin-7(6H)-one]
IC50 (human NOX5 (hNOX5)): > 100 µM
Qh [%] (human hepatocytes): 45%
IC50 (NOX2): > 30 µM

O=c1c2scnc2nc(SCc2ccc(C(F)(F)F)cc2F)n1-c1ccc(O)nn1 [Example 65]
IC50 (human NOX5 (hNOX5)): > 100 µM
Qh [%] (human hepatocytes): 50%
IC50 (NOX2): > 100 µM

O=c1c2scnc2nc(SCc2ccc(C(F)(F)F)cc2)n1-c1cnc(O)c(F)c1 [Example 32, 6-(5-Fluoro-6-hydroxypyridin-3-yl)-5-((4-(trifluoromethyl)benzyl)thio)thiazolo[4,5-d]pyrimidin-7(6H)-one]
IC50 (human NOX5 (hNOX5)): 55.7 µM
Qh [%] (human hepatocytes): 15%
IC50 (NOX2): > 100 µM

O=c1c2scnc2nc(SCc2ccc(Cl)cc2F)n1-c1ccc(O)nn1 [Example 61, 5-((4-Chloro-2-fluorobenzyl)thio)-6-(6-hydroxypyridazin-3-yl)thiazolo[4,5-d]pyrimidin-7(6H)-one]
IC50 (human NOX5 (hNOX5)): > 100 µM
Qh [%] (human hepatocytes): 55%
IC50 (NOX2): > 100 µM

Cc1cc(F)cc(C)c1CSc1nc2ncsc2c(=O)n1-c1ccc(O)nc1 [Example 24]
IC50 (human NOX5 (hNOX5)): > 100 µM
Qh [%] (human hepatocytes): 45%
IC50 (NOX2): 10.3 µM

O=c1c2scnc2nc(SCc2ccc(Cl)cc2F)n1-c1cnc(O)nc1 [Example 53, 5-((4-Chloro-2-fluorobenzyl)thio)-6-(2-hydroxypyrimidin-5-yl)thiazolo[4,5-d]pyrimidin-7(6H)-one]
IC50 (human NOX5 (hNOX5)): > 100 µM
Qh [%] (human hepatocytes): 13%
IC50 (NOX2): > 100 µM

O=c1c2scnc2nc(SCc2ccc(Br)cc2F)n1-c1cnc(O)c(F)c1 [Example 34]
IC50 (human NOX5 (hNOX5)): 46.5 µM
Qh [%] (human hepatocytes): 8%
IC50 (NOX2): > 100 µM

O=c1c2scnc2nc(SCc2ccc(Cl)cc2)n1-c1cnc(O)nc1 [Example 56]
IC50 (human NOX5 (hNOX5)): > 100 µM
Qh [%] (human hepatocytes): <4%
IC50 (NOX2): > 100 µM

O=c1c2scnc2nc(SCc2ccc(Cl)cc2Cl)n1-c1cnc(O)c(F)c1 [Example 39]
IC50 (human NOX5 (hNOX5)): 47.9 µM
Qh [%] (human hepatocytes): 26%
IC50 (NOX2): > 100 µM

O=c1c2scnc2nc(SCc2ccc(C(F)(F)F)cc2F)n1-c1cnc(O)c(F)c1 [Example 42]
IC50 (human NOX5 (hNOX5)): 46.8 µM
Qh [%] (human hepatocytes): 14%
IC50 (NOX2): > 100 µM

O=c1c2scnc2nc(SCc2ccc(Cl)cc2)n1-c1cnc(O)c(F)c1 [Example 33]
IC50 (human NOX5 (hNOX5)): > 100 µM
Qh [%] (human hepatocytes): 15%
IC50 (NOX2): > 100 µM

O=c1c2scnc2nc(SCc2c(F)cc(F)cc2F)n1-c1cnc(O)nc1 [Example 59]
IC50 (human NOX5 (hNOX5)): > 100 µM
Qh [%] (human hepatocytes): <4%
IC50 (NOX2): > 100 µM

O=c1c2scnc2nc(SCc2c(F)cc(F)cc2F)n1-c1cnc(O)cc1F [Example 49, 6-(4-Fluoro-6-hydroxypyridin-3-yl)-5-((2,4,6-trifluorobenzyl)thio)thiazolo[4,5-d]pyrimidin-7(6H)-one]
IC50 (human NOX5 (hNOX5)): > 100 µM
Qh [%] (human hepatocytes): 25%
IC50 (NOX2): > 100 µM

O=c1c2scnc2nc(SCc2ccc(Cl)cc2)n1-c1ccc(O)nc1 [Example 25]
IC50 (human NOX5 (hNOX5)): > 100 µM
Qh [%] (human hepatocytes): 41%
IC50 (NOX2): > 100 µM

O=c1c2scnc2nc(SCc2c(F)cc(F)cc2F)n1-c1cnc(O)c(F)c1F [Example 52, 6-(4,5-Difluoro-6-hydroxypyridin-3-yl)-5-((2,4,6-trifluorobenzyl)thio)thiazolo[4,5-d]-pyrimidin-7(6H)-one]
IC50 (human NOX5 (hNOX5)): 38.9 µM
Qh [%] (human hepatocytes): 20%
IC50 (NOX2): > 100 µM
